Measured values reported in ChEMBL document CHEMBL1145141, “New 2-bromomethyl-8-substituted-benzo[c]chromen-6-ones. Synthesis and biological properties” (Bioorg Med Chem Lett, 2005).
“And” between values parts separate entries of the source, which are not always exact repeats. Identical values can stand only once.

Assays:
[1] = Inhibitory concentration against Alpha-chymotrypsin
[2] = target: Human immunodeficiency virus type 1 protease (Human immunodeficiency virus 1, UniProt Q72874); assay: Inhibitory concentration against HIV aspartyl protease
[3] = target: Nitric oxide synthase 1 (Homo sapiens) (UniProt P29475); assay: Inhibitory activity against Neuronal nitric oxide synthase
Chain of Nitric oxide synthase 1 (Homo sapiens) (P29475 whole entry): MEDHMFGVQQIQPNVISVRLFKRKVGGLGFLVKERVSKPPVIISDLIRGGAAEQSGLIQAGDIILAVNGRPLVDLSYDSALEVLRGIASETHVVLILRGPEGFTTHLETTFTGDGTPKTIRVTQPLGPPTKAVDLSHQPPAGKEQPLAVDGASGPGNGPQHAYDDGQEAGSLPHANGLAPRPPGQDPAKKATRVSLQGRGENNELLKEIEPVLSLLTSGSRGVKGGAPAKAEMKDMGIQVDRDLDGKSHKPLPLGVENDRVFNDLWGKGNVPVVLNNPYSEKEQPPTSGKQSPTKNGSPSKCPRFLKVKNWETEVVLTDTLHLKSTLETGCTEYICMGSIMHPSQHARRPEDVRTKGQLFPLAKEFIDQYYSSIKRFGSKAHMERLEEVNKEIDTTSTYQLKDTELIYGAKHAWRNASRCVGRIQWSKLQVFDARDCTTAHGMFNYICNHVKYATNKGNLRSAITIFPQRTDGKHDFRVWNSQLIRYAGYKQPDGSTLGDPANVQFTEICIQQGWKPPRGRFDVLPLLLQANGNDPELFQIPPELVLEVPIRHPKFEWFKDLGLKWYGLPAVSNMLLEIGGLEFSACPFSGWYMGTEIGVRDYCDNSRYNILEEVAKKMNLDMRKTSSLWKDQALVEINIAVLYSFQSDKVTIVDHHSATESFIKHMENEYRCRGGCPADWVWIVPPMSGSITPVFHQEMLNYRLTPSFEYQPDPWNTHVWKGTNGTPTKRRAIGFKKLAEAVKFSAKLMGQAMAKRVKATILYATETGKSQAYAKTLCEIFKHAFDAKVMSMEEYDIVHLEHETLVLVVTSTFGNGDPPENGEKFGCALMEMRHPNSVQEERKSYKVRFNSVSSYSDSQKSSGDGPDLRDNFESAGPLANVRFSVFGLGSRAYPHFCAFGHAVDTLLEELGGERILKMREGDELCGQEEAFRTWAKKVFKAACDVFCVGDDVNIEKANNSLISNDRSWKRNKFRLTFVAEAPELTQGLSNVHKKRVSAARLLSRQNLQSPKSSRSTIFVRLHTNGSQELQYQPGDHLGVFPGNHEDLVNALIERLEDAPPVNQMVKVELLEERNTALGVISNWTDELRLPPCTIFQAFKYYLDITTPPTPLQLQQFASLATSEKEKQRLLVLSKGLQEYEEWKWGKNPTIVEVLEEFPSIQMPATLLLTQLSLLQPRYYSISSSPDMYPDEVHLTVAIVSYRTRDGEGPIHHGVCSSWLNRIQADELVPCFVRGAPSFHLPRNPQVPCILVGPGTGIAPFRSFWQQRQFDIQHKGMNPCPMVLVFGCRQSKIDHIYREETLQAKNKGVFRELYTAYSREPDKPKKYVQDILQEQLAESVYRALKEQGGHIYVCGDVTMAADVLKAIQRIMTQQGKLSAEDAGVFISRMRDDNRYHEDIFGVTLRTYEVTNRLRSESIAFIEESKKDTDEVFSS

[4] = target: Nitric oxide synthase, inducible (Homo sapiens) (UniProt P35228); assay: Inhibitory activity against Inducible nitric oxide synthase
Chain of Nitric oxide synthase, inducible (Homo sapiens) (P35228 whole entry): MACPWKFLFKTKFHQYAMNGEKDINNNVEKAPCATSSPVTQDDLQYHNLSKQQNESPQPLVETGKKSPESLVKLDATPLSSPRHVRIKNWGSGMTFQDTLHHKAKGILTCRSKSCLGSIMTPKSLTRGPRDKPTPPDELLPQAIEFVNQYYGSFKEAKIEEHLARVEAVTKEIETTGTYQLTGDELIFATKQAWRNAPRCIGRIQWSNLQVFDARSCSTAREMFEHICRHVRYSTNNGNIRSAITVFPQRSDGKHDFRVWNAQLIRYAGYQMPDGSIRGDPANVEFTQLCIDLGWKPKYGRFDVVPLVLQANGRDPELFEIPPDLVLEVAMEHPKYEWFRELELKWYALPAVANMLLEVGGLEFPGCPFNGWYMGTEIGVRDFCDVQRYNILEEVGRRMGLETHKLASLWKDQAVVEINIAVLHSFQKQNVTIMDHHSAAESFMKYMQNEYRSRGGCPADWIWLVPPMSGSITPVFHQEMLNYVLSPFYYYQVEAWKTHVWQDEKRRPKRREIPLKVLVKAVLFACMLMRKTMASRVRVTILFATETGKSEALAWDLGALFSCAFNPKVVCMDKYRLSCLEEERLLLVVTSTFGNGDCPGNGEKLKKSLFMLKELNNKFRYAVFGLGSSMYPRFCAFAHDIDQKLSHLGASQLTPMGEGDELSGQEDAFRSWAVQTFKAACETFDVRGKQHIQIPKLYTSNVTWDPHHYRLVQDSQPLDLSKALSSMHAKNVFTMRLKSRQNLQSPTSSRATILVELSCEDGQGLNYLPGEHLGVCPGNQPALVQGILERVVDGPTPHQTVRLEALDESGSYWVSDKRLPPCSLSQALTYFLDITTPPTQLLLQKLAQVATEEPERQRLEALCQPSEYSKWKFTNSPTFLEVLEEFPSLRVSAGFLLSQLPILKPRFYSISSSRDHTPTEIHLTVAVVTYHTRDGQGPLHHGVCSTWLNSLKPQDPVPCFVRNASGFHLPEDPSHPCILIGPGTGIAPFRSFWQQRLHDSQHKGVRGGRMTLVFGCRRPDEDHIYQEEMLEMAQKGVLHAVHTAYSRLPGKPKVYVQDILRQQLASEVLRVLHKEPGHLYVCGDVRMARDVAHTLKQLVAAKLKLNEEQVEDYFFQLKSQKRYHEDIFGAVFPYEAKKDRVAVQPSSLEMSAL

[5] = target: T1, Nitric oxide synthase 3 (Homo sapiens) (UniProt P29474); assay: Inhibitory activity against Endothelial nitric oxide synthase
T1 sequence (whole entry): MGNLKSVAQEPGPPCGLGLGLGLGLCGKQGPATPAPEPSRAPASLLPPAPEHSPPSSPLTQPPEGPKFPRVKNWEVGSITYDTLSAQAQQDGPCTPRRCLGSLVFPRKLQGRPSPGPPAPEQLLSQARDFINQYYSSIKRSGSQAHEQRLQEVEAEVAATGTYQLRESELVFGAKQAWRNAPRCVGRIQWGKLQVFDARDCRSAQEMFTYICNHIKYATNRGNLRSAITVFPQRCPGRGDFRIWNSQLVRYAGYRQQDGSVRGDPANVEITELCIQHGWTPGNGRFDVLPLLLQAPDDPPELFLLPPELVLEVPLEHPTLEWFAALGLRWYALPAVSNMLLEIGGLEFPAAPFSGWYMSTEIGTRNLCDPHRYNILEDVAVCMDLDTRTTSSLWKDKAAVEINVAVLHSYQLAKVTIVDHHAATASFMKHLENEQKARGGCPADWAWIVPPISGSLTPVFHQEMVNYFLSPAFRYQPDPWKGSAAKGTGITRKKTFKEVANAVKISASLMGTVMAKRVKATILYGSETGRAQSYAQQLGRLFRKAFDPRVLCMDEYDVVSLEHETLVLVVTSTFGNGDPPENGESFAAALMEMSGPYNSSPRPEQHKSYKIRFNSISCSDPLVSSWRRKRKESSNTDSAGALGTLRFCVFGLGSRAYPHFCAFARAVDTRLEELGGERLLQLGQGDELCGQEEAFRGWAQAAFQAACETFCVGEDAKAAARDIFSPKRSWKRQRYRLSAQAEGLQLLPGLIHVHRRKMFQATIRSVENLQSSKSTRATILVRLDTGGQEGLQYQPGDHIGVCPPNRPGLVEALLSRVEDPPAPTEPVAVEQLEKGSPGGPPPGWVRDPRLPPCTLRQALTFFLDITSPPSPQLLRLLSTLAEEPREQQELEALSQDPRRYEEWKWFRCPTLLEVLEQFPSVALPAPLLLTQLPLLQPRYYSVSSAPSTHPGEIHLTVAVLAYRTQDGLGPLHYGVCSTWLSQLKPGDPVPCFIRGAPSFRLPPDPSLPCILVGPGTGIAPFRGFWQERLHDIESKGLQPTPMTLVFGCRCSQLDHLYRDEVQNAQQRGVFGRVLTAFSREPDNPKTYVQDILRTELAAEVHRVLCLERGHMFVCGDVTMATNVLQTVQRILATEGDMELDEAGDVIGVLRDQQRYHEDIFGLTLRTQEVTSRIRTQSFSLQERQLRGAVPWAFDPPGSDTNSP

[6] = target: Human immunodeficiency virus type 1 protease (Human immunodeficiency virus 1) (UniProt Q72874); assay: Initial effective dose against protease of human immunodeficiency virus type 1
[7] = target: Human immunodeficiency virus type 1 protease (Human immunodeficiency virus 1) (UniProt Q72874); assay: Effective dose against protease of human immunodeficiency virus type 1
Chymotrypsin-C = target: T2, Chymotrypsin-C (Homo sapiens, UniProt Q99895); assay: Inhibitory concentration against Alpha-chymotrypsin; In active at 100 uM
T2 sequence (Q99895 whole entry): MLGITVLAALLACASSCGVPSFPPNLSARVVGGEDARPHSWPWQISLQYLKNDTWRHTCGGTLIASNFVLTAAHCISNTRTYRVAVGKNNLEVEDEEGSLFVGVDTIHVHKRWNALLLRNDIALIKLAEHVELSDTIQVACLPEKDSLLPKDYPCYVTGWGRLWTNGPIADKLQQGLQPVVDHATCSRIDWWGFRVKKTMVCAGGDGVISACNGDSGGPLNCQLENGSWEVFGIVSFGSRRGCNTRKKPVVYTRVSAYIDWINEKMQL

Structure (SMILES)	IC50 [1]	IC50 [2] [µM]	Inhibition [3] [µM]	Inhibition [4] [µM]	Inhibition [5] [µM]	ED50 [6] [µM]	ED90 [7] [µM]	IC50 (Chymotrypsin-C)
Cc1ccc2oc(=O)c3cc([N+](=O)[O-])ccc3c2c1	> 100 µM	50	–	–	–	–	–	–
O=c1oc2ccc(CBr)cc2c2ccc([N+](=O)[O-])cc12	> 100 µM	10	250	60	120	–	–	–
CCC[C@@]1(CCc2ccccc2)CC(O)=C([C@H](CC)c2cccc(NS(=O)(=O)c3ccc(C(F)(F)F)cn3)c2)C(=O)O1	–	–	–	–	–	300	0.1	–
Cc1ccc2oc(=O)c3cc(N)ccc3c2c1	> 100 µM	~100	900	150	600	–	–	Inactive
Nc1ccc2c(c1)c(=O)oc1ccc(CBr)cc12	> 100 µM and ~100 µM	50	200	110	120	–	–	–
O=[N+]([O-])c1cccc2cn[nH]c12	–	–	15	15	8	–	–	–
